# From patent US7074789B2, “Kinase inhibitors” (Amgen Inc., priority 1999, dated 2006)
# Legend:
# Format in all cases: biochemical
# [1] = biological target: T1, Tek (Homo sapiens, UniProt Q02763); assay: Kinase inhibition assay (33P transfer), Tek; conditions: read-out: Tek-1
# T1 construct: Kinases are expressed as either kinase domains or full length constructs; made in house
# Outline: (§1)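 Each enzyme, purified to near homogeneity by affinity chromatography, was incubated with ATP carrying 33P and a substrate polymer fixed to the plate. Unbound label was removed with dilute phosphoric acid (0.5%) before adding scintillant and counting. Potency is given as the compound level cutting label uptake by 50%.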
# [2] = biological target: T2, AKT (Homo sapiens, UniProt Q9Y243); assay: Kinase inhibition assay (33P transfer), AKT; conditions: Table 2, kinase inhibition class; read-out: AKT3-1
# T2 construct: Kinases are expressed as either kinase domains or full length constructs; made in house
# T2 sequence (Q9Y243 whole entry, the tested form may be a part): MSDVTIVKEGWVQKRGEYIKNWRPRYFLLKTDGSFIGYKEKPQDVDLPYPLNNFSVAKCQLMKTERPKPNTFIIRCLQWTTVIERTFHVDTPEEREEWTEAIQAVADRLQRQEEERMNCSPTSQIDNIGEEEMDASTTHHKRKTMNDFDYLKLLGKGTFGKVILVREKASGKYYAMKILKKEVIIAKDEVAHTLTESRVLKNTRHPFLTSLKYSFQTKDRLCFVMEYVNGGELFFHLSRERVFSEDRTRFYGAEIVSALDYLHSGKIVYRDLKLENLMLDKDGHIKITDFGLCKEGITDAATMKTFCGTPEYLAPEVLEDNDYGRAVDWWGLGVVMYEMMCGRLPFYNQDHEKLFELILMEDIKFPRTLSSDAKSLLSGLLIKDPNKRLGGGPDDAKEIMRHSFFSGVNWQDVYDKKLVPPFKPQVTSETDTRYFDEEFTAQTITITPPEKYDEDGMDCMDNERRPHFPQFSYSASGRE
# Outline: (§2)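 GST/His-tagged kinase (domain or full length; E. coli or baculovirus) + [33P]ATP on plates coated with poly(Glu,Tyr) 4:1 or poly(Arg,Ser) 3:1; incubate, wash 0.5% H3PO4, add scintillant, count.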
# [3] = biological target: T3, c-Met (Homo sapiens, UniProt P08581); assay: Kinase inhibition assay (33P transfer), c-Met; conditions: Table 2, kinase inhibition class; read-out: Met-1
# T3 construct: Kinases are expressed as either kinase domains or full length constructs; made in house
# Outline: as §1
# [4] = biological target: T4, PDGFRB (Homo sapiens, UniProt P09619); assay: Kinase inhibition assay (33P transfer), PDGFRB; conditions: read-out: PDGFRB-1
# T4 construct: Kinases are expressed as either kinase domains or full length constructs; made in house
# T4 sequence (P09619 33-1106, species assumed): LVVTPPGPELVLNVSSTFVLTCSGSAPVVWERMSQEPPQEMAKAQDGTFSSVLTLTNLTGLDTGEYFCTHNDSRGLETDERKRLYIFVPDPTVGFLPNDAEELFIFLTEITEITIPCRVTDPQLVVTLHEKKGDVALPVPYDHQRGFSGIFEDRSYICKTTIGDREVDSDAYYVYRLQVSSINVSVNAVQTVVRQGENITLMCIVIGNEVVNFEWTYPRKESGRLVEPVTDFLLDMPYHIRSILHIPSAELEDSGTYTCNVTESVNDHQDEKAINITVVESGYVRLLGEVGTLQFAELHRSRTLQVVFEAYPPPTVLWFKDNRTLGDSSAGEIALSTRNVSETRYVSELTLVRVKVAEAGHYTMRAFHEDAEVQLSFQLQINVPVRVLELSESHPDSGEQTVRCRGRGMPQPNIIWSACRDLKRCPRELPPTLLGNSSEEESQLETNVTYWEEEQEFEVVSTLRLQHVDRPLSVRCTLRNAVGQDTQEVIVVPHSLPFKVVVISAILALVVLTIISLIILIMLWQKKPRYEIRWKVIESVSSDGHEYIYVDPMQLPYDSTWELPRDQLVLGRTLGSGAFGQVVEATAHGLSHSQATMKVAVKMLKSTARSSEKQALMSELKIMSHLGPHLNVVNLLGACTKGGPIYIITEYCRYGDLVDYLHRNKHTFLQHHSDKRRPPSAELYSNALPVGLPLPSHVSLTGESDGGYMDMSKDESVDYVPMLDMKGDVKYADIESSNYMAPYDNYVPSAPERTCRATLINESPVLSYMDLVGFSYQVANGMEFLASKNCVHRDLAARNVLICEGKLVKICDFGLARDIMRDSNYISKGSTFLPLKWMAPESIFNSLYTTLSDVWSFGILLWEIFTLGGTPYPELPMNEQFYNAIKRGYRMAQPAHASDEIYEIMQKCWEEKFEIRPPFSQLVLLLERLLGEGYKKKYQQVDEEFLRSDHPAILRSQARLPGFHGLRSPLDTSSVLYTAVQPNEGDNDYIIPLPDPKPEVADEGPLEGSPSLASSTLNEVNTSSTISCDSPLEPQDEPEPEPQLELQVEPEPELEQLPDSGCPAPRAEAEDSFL
# [5] = biological target: T5, EGFR (Homo sapiens, UniProt P00533); assay: Kinase inhibition assay (33P transfer), EGFR; conditions: Table 2, kinase inhibition class; read-out: EGFR-1
# T5 construct: Kinases are expressed as either kinase domains or full length constructs; made in house
# Outline: as §1
# [6] = biological target: T6, Zap-70 (Homo sapiens, UniProt P43403); assay: Kinase inhibition assay (33P transfer), Zap-70; conditions: read-out: Zap-1
# T6 construct: Kinases are expressed as either kinase domains or full length constructs; made in house
# T6 sequence (P43403 1-619): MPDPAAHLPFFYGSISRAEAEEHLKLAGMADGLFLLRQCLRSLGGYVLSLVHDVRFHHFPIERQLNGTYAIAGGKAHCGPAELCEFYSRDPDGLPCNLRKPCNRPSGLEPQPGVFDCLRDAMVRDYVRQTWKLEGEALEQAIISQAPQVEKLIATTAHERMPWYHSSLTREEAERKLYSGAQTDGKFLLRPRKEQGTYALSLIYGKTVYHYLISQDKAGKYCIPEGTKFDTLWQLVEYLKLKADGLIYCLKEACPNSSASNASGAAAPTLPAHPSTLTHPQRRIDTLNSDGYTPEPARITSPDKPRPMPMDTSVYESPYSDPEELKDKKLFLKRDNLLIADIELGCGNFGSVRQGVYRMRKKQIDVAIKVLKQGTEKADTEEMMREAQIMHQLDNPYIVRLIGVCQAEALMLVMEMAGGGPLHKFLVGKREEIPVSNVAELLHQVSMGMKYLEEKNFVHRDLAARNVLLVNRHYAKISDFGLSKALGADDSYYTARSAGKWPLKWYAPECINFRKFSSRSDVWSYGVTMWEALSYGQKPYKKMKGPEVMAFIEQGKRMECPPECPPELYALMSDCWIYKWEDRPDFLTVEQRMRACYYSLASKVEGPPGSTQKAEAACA
# Outline: as §2
# [7] = biological target: T7, Kdr (Homo sapiens, UniProt P35968); assay: Kinase inhibition assay (33P transfer), Kdr; conditions: read-out: KDR-1
# T7 construct: Kinases are expressed as either kinase domains or full length constructs; made in house
# Outline: as §2
# [8] = biological target: T8, IGFR-1 (Homo sapiens, UniProt P08069); assay: Kinase inhibition assay, IGFR-1 (Table 2); conditions: Table 2, kinase inhibition class
# T8 construct: Kinases are expressed as either kinase domains or full length constructs; made in house
# T8 sequence (P08069 31-1367): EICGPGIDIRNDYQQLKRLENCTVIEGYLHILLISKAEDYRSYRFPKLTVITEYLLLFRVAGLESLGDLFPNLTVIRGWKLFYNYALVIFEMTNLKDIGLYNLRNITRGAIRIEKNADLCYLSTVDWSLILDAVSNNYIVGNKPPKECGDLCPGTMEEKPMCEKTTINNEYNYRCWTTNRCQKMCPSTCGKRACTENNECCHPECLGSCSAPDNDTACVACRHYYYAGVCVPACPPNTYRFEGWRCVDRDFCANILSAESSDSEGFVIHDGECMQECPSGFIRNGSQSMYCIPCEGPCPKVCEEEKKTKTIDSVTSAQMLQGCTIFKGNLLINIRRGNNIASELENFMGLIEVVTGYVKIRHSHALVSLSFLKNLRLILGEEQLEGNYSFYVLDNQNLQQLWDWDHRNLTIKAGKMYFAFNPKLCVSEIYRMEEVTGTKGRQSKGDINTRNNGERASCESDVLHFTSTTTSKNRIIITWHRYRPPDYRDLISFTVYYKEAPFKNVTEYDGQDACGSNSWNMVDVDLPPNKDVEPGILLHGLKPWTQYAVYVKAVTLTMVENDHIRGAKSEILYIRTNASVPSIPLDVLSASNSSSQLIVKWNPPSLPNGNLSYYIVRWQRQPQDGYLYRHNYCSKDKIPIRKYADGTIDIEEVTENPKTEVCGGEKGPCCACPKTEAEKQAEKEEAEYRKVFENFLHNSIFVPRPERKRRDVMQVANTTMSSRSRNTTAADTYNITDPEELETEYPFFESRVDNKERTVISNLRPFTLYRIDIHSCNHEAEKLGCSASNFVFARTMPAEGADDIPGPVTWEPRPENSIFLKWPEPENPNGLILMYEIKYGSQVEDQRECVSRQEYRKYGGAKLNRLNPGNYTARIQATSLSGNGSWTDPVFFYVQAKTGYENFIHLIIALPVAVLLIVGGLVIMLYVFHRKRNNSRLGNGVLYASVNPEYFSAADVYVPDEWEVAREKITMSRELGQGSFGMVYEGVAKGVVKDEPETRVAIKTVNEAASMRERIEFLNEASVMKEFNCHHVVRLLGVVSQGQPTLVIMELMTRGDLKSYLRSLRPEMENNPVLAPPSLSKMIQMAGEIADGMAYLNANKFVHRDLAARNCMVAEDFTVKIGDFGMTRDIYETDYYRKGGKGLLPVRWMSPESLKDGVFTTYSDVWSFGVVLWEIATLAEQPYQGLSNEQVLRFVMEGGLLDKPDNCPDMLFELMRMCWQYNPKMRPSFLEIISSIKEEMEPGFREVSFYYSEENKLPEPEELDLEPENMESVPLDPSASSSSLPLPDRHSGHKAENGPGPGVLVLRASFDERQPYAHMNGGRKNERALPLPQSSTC
# [9] = biological target: T9, Itk (Homo sapiens, UniProt Q08881); assay: Kinase inhibition assay (33P transfer), Itk; conditions: read-out: Itk-1
# T9 construct: Kinases are expressed as either kinase domains or full length constructs; made in house
# T9 sequence (Q08881 1-620): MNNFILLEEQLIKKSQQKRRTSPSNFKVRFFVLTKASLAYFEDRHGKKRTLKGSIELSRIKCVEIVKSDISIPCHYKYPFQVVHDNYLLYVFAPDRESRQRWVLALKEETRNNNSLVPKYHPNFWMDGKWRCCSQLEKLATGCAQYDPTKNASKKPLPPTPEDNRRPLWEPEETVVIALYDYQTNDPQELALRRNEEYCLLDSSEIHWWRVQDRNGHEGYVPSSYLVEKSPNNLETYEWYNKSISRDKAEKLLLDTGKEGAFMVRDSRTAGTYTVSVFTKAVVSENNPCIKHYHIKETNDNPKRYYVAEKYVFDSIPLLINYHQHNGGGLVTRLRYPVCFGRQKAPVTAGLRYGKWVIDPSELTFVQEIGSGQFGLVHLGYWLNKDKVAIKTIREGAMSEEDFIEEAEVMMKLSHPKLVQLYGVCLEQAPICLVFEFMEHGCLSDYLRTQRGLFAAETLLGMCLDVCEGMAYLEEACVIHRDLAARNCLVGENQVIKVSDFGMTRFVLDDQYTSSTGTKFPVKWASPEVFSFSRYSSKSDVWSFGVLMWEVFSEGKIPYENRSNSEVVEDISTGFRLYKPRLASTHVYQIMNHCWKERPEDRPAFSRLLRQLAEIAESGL
# Outline: as §1
# [10] = biological target: T10, Lck (Homo sapiens, UniProt P06239); assay: Kinase inhibition assay (33P transfer), Lck; conditions: read-out: Lck-1
# T10 construct: Kinases are expressed as either kinase domains or full length constructs; made in house
# T10 sequence (P06239 whole entry, species assumed, the tested form may be a part): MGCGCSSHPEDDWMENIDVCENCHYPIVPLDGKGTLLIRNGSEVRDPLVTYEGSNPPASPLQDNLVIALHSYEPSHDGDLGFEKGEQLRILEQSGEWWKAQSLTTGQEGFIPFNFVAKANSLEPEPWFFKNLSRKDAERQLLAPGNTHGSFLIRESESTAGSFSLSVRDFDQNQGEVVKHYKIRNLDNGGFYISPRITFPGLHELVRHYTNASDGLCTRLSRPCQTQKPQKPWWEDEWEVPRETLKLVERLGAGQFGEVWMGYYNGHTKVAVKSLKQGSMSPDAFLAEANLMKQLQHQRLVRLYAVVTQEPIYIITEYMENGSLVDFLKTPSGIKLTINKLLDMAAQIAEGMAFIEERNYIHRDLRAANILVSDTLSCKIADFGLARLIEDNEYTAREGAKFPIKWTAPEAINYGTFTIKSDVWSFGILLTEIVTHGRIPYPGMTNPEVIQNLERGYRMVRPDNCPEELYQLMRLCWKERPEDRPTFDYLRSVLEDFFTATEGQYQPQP
# Outline: as §2
# [11] = biological target: T11, ErbB2 (Homo sapiens, UniProt P04626); assay: Kinase inhibition assay (33P transfer), ErbB2; conditions: read-out: ErbB2-2
# T11 construct: Kinases are expressed as either kinase domains or full length constructs; made in house
# T11 sequence (P04626 23-1255, species assumed): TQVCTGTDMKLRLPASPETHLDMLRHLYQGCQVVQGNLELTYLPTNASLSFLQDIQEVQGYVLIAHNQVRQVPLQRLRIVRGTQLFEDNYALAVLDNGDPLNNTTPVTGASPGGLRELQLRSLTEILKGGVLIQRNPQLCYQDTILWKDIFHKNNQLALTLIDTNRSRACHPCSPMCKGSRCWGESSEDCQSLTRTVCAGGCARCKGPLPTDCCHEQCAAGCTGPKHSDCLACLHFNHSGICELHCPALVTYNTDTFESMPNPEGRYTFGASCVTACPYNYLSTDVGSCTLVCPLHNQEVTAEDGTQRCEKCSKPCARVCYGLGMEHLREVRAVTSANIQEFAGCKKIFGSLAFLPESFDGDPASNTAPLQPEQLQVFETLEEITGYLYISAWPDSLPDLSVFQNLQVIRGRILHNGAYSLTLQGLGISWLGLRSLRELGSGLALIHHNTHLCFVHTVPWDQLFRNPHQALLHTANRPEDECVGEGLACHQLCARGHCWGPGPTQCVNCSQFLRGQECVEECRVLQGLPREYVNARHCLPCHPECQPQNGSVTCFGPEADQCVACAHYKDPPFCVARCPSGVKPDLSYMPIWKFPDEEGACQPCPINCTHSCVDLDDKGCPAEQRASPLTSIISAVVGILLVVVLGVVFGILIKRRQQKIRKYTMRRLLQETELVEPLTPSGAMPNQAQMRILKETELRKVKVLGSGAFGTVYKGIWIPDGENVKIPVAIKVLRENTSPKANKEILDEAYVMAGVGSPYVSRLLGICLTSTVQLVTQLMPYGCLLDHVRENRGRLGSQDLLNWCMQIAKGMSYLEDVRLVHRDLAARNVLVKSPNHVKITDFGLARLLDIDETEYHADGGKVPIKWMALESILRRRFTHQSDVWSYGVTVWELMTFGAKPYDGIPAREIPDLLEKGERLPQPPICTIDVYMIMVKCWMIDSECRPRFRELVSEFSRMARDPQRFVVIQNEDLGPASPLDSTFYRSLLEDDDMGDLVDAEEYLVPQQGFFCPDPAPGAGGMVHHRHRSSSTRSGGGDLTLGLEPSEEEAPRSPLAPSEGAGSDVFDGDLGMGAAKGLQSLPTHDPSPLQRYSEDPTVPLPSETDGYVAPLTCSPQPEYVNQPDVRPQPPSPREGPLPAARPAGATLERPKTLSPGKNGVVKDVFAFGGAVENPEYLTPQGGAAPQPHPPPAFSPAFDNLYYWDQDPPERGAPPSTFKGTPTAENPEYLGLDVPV
# Outline: as §1
Compound,IC50 [1],IC50 [2],IC50 [3],IC50 [4],IC50 [5],IC50 [6],IC50 [7],IC50 [8],IC50 [9],IC50 [10],IC50 [11]
COc1cc(Nc2ncnc(-n3c(C)nc4ccccc43)n2)cc(OC)c1OC [Compound 691],> 11.5 µM,> 11.5 µM,1.02 to 6.12 µM,< 1.02 µM,6.12 to 8.92 µM,> 11.5 µM,< 1.02 µM,< 1.02 µM,6.12 to 8.92 µM,1.02 to 6.12 µM,> 11.5 µM
NC(=O)c1ccc(Nc2ncnc(-c3cccnc3NCc3cccs3)n2)cc1 [Compound 1083],0.991 to 5.95 µM,> 11.2 µM,> 11.2 µM,0.991 to 5.95 µM,0.991 to 5.95 µM,> 11.2 µM,< 0.991 µM,> 11.2 µM,8.67 to 11.2 µM,0.991 to 5.95 µM,> 11.2 µM
COc1cc(Nc2ncnc(-n3ncc(-c4ccccc4)c3N)n2)cc(OC)c1OC [Compound 522],8.34 to 10.7 µM,> 10.7 µM,5.72 to 8.34 µM,5.72 to 8.34 µM,5.72 to 8.34 µM,> 10.7 µM,5.72 to 8.34 µM,0.954 to 5.72 µM,0.954 to 5.72 µM,0.954 to 5.72 µM,8.34 to 10.7 µM
Nc1nc2ccccc2n1-c1ncnc(Nc2cccnc2)n1 [Compound 658],> 14.8 µM,> 14.8 µM,> 14.8 µM,> 14.8 µM,7.89 to 11.5 µM,> 14.8 µM,1.31 to 7.89 µM,< 1.31 µM,1.31 to 7.89 µM,> 14.8 µM,> 14.8 µM
COc1cc(Nc2ncnc(-n3c(NCc4nc5ccccc5[nH]4)nc4ccccc43)n2)cc(OC)c1OC [Compound 954],> 8.6 µM,> 8.6 µM,6.69 to 8.6 µM,> 8.6 µM,> 8.6 µM,> 8.6 µM,6.69 to 8.6 µM,6.69 to 8.6 µM,4.58 to 6.69 µM,6.69 to 8.6 µM,4.58 to 6.69 µM
Nc1nc2ccccc2n1-c1ncnc(Nc2cccc(Cl)c2)n1 [Compound 474],1.18 to 7.11 µM,1.18 to 7.11 µM,1.18 to 7.11 µM,1.18 to 7.11 µM,1.18 to 7.11 µM,7.11 to 10.4 µM,1.18 to 7.11 µM,1.18 to 7.11 µM,1.18 to 7.11 µM,1.18 to 7.11 µM,1.18 to 7.11 µM

# Now from value to molecule:
IC50 [1],IC50 [2],IC50 [3],IC50 [4],IC50 [5],IC50 [6],IC50 [7],IC50 [8],IC50 [9],IC50 [10],IC50 [11],Compound
> 9.46 µM,> 9.46 µM,> 9.46 µM,0.841 to 5.05 µM,> 9.46 µM,> 9.46 µM,< 0.841 µM,> 9.46 µM,> 9.46 µM,0.841 to 5.05 µM,> 9.46 µM,COc1ccc(CNc2ncccc2-c2ncnc(Nc3cc(OC)c(OC)c(OC)c3)n2)nc1 [Compound 1085]
6.36 to 9.27 µM,9.27 to 11.9 µM,< 1.06 µM,1.06 to 6.36 µM,< 1.06 µM,6.36 to 9.27 µM,< 1.06 µM,1.06 to 6.36 µM,1.06 to 6.36 µM,6.36 to 9.27 µM,> 11.9 µM,O=C(O)Cc1cccc(Nc2ncnc(Nc3cc(-c4ccco4)n[nH]3)n2)c1 [Compound 983]
> 11.2 µM,> 11.2 µM,< 0.991 µM,> 11.2 µM,0.991 to 5.95 µM,> 11.2 µM,0.991 to 5.95 µM,< 0.991 µM,5.95 to 8.68 µM,0.991 to 5.95 µM,0.991 to 5.95 µM,COc1cc(C)c(Nc2ncnc(Nc3cc(-c4ccccc4)n[nH]3)n2)cc1OC [Compound 978]
